Patent US9315510B2, “Method and application of unsymmetrically meso-substituted porphyrins and chlorins for PDT” (Biolitec Pharma Marketing LTD, priority 2008, dated 2016)

Key:
[1] = system: mouse monocytes-macrophages cell line J774A.1; assay: Cell tests in the mouse macrophage cell line J774A.1: photodynamic activity, XTT cell viability; type: cell-based; settings: 2 or 10 μM photosensitizer, 24 h incubation, 652 nm diode laser, 50 J/cm^2
Method: (§1) The mouse monocytes-macrophages cell line J774A.1 and the rabbit synoviocyte cell line HIG-82 were grown in DMEM (cc-pro GmbH) supplemented with 10% heat-inactivated fetal calf serum (FCS, cc-pro GmbH), 1% penicillin (10000 IU) and streptomycin (10 000 μg/ml, cc-pro GmbH). Cells were kept as a monolayer culture in a humidified incubator (5% CO2 in air at 37° C.).
(§2) A photosensitizer stock solution (2 mM) was performed in DMSO and was kept in the dark at 4° C. Further dilution was performed in RPMI 1640 medium without phenol red supplemented with 10% FCS to reach a final photosensitizer concentration of 2 or 10 μM, respectively.
(§3) 2·10^4 cells/ml were seeded in micro plates (2·10^5 cells/well). Cells were incubated with fresh medium (RPMI without phenol red) containing 10% FCS with 2 or 10 μM of the photosensitizer for 24 h before light exposure. […]
(§4) The cell viability was assessed by the XTT assay. […]
(§5) The absorbance of the samples was measured with a spectrophotometer (Bio-Kinetics Reader EL312 e; Bio-Tek Instruments Inc.) at a wavelength of 490 nm. In order to measure reference absorbance (to measure non-specific readings) a wavelength of 630-690 nm was used.

[2] = system: human colon adenocarcinoma cell line HT29; assay: Cell tests in the HT 29 cell line: photosensitizing activity, XTT cell viability; type: cell-based
Method: The photosensitizing activity was determined in the human colon adenocarcinoma cell line HT29. The HT29 cell lines were grown in DMEM (cc-pro GmbH) supplemented with 10% heat-inactivated fetal calf serum (FCS, cc-pro GmbH), 1% penicillin (10000 IU) and streptomycin (10000 μg/ml, cc-pro GmbH). Cells were kept as a monolayer culture in a humidified incubator (5% CO2 in air at 37° C.
as §2, §3, §4, §5

[3] = system: rabbit synoviocyte cell line HIG-82; assay: Cell tests in the rabbit synoviocyte cell line HIG-82: photodynamic activity, XTT cell viability; type: cell-based; settings: HIG82, 2 or 10 μM photosensitizer, 24 h incubation, 652 nm diode laser, 50 J/cm^2
Method: as §1, §2, §3, §4, §5

Row | Molecule | melting point | photodynamic activity [1] | photodynamic activity [3] | further results
1 | 5,15-Bis-(4-carboxyphenyl)-10,20-dihexyl-7,8-dihydroxy-7,8-chlorin |  | very strong photodynamic activity | very strong photodynamic activity | photodynamic activity (photo toxicity) ([2]; HT29, 2 or 10 μM photosensitizer, 24 h incubation, 652 nm diode laser, 100 mW/cm^2 (50 J/cm^2), XTT 24 h after irradiation): very strong photodynamic activity; dark toxicity (DT) and photo toxicity ([2]; HT 29 cell line, cell culture experiments (FIG. 4A)): excellent properties
2 | CCCCCCc1c2nc(c(-c3ccc(C(=O)O)cc3)c3ccc([nH]3)c(-c3ccc(C(=O)O)cc3)c3nc(c(CCCCCC)c4ccc1[nH]4)C(O)C3O)C=C2 (stereo not shown) [5,20-Bis-(4-carboxyphenyl)-10,15-dihexyl-7,8-dihydroxy-7,8-chlorin] |  | very strong photodynamic activity | very strong photodynamic activity | 

More lines, main results first:

Row | melting point | Molecule | photodynamic activity [1] | photodynamic activity [3] | further results
3 | 133 °C | CCCCCCCCCCCCCc1c2nc(c(-c3cccc(O)c3)c3ccc([nH]3)c(CCCCCCCCCCCCC)c3nc(c(-c4cccc(O)c4)c4ccc1[nH]4)C=C3)C=C2 [5,15-Bis-(3-hydroxyphenyl)-10,20-bis-(tridecyl)-porphyrin] |  |  | 
4 | 131 °C | CCCCCCc1c2nc(c(CCCCCC)c3ccc([nH]3)c(-c3ccc(C(=O)OC)cc3)c3nc(c(-c4ccc(C(=O)OC)cc4)c4ccc1[nH]4)C=C3)C=C2 [5,10-Dihexyl-15,20-bis-(4-methoxycarbonylphenyl)-porphyrin] |  |  | 
5 | 238 °C | CCCCCCc1c2nc(c(-c3ccc(C(=O)OC)cc3)c3ccc([nH]3)c(CCCCCC)c3nc(c(-c4ccc(C(=O)OC)cc4)c4ccc1[nH]4)C=C3)C=C2 [5,15-Dihexyl-10,20-bis-(4-methoxycarbonylphenyl)-porphyrin] |  |  | 
6 | 113 °C | CCCCCCCCCCCCCc1c2nc(c(CCCCCCCCCCCCC)c3ccc([nH]3)c(-c3cccc(O)c3)c3nc(c(-c4cccc(O)c4)c4ccc1[nH]4)C=C3)C=C2 [5,10-Bis-(3-hydroxyphenyl)-15,20-bis-(tridecyl)-porphyrin] |  |  | 
